ChEMBL document CHEMBL1201862, “PubChem BioAssay data set” (2004)
Where “and” joins values, the source holds several entries; their conditions need not be identical. Equal values may be shown once. Values belong to the molecule of their own block, whether it stands above or below them. Calls of active or inactive are those of the source.

What was measured:
[1] = biological target: T1, Cytochrome P450 1A2 (Homo sapiens, UniProt P05177);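 also: PubChem cytochrome P450 panel assay, CYP1A2 panel member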
T1 sequence (P05177 whole entry): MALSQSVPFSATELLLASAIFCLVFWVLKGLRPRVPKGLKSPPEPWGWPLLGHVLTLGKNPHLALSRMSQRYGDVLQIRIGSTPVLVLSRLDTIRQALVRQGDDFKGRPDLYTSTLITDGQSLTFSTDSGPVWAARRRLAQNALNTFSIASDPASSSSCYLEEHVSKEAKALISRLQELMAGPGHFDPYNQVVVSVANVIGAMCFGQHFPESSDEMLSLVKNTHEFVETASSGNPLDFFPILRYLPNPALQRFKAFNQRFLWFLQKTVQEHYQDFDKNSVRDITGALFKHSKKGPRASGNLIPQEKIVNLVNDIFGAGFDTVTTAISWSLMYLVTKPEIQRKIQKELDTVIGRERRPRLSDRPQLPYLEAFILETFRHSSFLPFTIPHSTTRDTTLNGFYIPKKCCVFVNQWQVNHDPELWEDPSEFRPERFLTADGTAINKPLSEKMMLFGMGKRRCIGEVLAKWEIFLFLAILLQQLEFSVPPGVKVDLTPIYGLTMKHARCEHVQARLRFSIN

[2] = biological target: Cytochrome P450 2C9 (Homo sapiens, UniProt P11712)
[3] = biological target: Paired box protein Pax-8 (Homo sapiens, UniProt Q06710); experiment: PAX8 transcriptional activity inhibition in RMG-I – RMG-I cells, luciferase, cherry-pick, dose response (AID 687027); type: functional, cell-based;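 also: luciferase reporter driven by Pax8 target thyroperoxidase promoter measured by SteadyGlo luminescence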
[4] = biological target: T2, Heat shock factor protein 1 (Mus musculus, UniProt P38532); experiment: enhancement of HSF1-driven luciferase signal – cell-based, NIH3T3, luminescence, dose retest, confirmation (AID 435004); type: functional;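 also: stress induced by proteasome inhibitor MG132 added 30 min after compound; luciferase reporter driven by HSF1 response element in NIH3T3 cells; actives raise luminescence as potentiators of the MG132 stress response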
T2 sequence (P38532 whole entry): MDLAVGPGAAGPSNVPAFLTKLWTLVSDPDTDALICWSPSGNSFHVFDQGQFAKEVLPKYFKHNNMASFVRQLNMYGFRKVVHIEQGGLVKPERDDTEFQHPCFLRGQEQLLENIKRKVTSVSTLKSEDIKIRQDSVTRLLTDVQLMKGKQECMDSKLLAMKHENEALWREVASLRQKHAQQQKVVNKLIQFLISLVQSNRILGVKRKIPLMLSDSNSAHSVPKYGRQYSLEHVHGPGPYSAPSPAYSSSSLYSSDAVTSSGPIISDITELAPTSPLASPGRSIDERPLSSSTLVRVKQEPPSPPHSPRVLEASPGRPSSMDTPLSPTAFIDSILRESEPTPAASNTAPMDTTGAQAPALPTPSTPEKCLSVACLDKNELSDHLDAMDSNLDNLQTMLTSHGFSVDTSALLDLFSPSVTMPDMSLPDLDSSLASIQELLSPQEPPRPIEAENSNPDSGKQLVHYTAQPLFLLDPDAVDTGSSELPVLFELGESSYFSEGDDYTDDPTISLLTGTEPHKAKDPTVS

[5] = biological target: Cytochrome P450 2C19 (Homo sapiens, UniProt P33261); experiment: Cytochrome panel assay with activity outcomes. Panel member name: p450-cyp2c19 Compounds with AC50 equal or less than 10 uM are considered active; type: functional; conditions: read-out: AC50
[6] = viability of uninfected HEp-2 cells – cell-based, HTS, cytotoxicity control for RSV inhibitor project, dose response (AID 2410); type: functional; conditions: human respiratory syncytial virus
[7] = biological target: Cytochrome P450 3A4 (Homo sapiens, UniProt P08684);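 also: CYP3A4 tested as one member of a cytochrome P450 panel screen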
Cytochrome P450 3A4, sequence (P08684 whole entry): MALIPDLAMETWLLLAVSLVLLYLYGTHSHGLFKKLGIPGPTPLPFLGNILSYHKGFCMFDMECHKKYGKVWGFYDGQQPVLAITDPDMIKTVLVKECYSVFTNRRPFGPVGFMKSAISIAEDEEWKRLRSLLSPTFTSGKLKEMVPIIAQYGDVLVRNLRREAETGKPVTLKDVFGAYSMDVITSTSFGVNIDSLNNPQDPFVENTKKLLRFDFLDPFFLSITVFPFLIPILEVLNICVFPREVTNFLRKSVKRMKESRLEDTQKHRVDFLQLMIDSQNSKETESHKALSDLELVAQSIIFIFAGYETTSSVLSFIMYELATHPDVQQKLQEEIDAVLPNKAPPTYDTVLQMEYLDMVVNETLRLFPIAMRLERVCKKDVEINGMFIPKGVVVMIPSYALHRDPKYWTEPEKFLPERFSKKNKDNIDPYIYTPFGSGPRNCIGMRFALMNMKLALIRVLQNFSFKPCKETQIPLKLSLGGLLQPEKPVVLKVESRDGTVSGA

Cytochrome P450 2C19, sequence (P33261 whole entry): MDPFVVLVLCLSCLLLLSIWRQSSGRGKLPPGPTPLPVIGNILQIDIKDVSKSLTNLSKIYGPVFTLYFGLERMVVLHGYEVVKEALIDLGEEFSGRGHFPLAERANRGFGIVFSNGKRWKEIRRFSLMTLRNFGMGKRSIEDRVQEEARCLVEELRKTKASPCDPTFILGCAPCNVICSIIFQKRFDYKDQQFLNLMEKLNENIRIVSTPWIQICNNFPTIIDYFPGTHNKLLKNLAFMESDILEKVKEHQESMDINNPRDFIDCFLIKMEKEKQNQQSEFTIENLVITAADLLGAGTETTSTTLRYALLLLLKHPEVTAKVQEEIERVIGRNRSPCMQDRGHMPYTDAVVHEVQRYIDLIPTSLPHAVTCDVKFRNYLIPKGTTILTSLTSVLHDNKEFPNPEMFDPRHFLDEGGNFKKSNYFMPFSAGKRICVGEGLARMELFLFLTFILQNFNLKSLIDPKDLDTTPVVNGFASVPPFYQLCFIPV
Paired box protein Pax-8, sequence (Q06710 whole entry): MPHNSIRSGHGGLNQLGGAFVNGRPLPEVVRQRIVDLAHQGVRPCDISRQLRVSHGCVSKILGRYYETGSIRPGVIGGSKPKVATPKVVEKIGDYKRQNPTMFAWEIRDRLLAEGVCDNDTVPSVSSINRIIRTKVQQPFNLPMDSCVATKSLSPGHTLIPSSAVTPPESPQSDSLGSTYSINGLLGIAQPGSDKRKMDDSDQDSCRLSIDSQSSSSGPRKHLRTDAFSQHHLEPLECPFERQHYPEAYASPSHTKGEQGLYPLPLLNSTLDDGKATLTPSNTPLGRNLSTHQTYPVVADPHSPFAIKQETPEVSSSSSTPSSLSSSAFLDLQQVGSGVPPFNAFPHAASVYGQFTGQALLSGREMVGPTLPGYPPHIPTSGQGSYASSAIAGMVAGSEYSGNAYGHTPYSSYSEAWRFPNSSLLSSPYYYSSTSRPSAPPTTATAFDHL
Cytochrome P450 2C9, sequence (P11712 whole entry): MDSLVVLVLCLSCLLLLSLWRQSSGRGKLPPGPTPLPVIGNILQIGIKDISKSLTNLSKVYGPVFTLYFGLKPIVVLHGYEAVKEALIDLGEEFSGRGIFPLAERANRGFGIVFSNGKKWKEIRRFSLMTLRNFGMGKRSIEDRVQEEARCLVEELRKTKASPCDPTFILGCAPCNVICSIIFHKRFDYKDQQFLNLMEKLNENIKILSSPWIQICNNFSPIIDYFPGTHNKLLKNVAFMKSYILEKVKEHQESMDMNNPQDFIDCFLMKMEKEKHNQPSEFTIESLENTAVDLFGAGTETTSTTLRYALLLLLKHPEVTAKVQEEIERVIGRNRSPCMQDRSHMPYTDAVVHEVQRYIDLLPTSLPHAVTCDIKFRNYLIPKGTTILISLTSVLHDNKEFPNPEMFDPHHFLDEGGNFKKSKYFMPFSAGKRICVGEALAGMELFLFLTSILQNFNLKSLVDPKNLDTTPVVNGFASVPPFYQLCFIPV

Structure (SMILES): CC(C)NC(=O)c1onc(CSc2cccc3ccccc23)c1C(=O)O
CC50 [6]: 12.6 µM (active)

Structure (SMILES): COc1ccc(/C=C(\C#N)C(=O)OCC(=O)Nc2ccc(-c3nc4ccc(C)cc4s3)cc2)cc1
CC50 [6]: 18.6 µM (active)

Structure (SMILES): CC[C@H](C(=O)c1cccs1)C(O)(C(F)(F)F)C(F)(F)F
AC50 [5]: 2 µM (inconclusive) | AC50 [2]: 7.94 µM (inconclusive)

Structure (SMILES): CC(C)Oc1cc(-n2c(=S)[nH]c3ccccc3c2=O)c(Cl)cc1Cl
AC50 [1]: 12.6 µM (inconclusive)

Structure (SMILES): CCN=C(S)NNC(=O)c1csc2c1CCCC2
CC50 [6]: 17.9 µM (active)

Structure (SMILES): Fc1ccccc1OCCCCCCN1CCCC1
AC50 [1]: 17.8 µM (inconclusive) | AC50 [5]: 39.8 µM (inconclusive) | AC50 [2]: 39.8 µM (inconclusive) | AC50 [7]: 17.8 µM (inconclusive)

Structure (SMILES): Oc1ccc(C[C@H]2CNC(=S)N2CC2CCCN2C[C@H](Cc2ccc(O)cc2)N2C[C@H](Cc3ccccc3)N(CC3CCCCCC3)C2=S)cc1 (some centres not stated)
AC50 [3]: 9.86 µM (active)

Structure (SMILES): OC[C@@H](O)C1OC2N=C(S)OC2C1O (some centres not stated)
EC50 [4]: > 260 µM (inactive)

Structure (SMILES): N=C(N)NC(=O)c1nc(Cl)c(N)nc1N [AMILORIDE]
AC50 [1]: 39.8 µM (inconclusive) and 12.6 µM (inconclusive)

Structure (SMILES): COc1ccc2nc(-c3ccccc3)cc(OC)c2c1
CC50 [6]: > 50 µM (active)

Second part, the molecule after the results:

AC50 [1]: 25.1 µM (inconclusive) | AC50 [2]: 12.6 µM (inconclusive)
Structure (SMILES): COc1ccc(NC(=O)N2CC[C@@]3(CCCN(C(=O)c4ccc(OC)cc4)C3)C2)cc1

AC50 [3]: 26.3 µM (active)
Structure (SMILES): Cc1ccc(C)c(CSC2=NCCN2C(=O)Cc2ccc([N+](=O)[O-])cc2)c1

AC50 [3]: 41.5 µM (active)
Structure (SMILES): O=C(CCc1ccc(S(=O)(=O)NCc2ccccc2)cc1)NCc1cccnc1

EC50 [4]: > 260 µM (inactive)
Structure (SMILES): Cc1ccc(NC2=NC(N)=NC3(CCCC3)N2)c(C)c1

EC50 [4]: 39.1 µM (active)
Structure (SMILES): O=C1C2CC=CCC2C(=O)N1Cc1nnc(-c2ccc(Cl)cc2)o1 (configuration not stated)

AC50 [5]: 31.6 µM (inconclusive) | AC50 [2]: 28.2 µM (inconclusive)
Structure (SMILES): CCOC(=O)C(C)n1cnc2c(oc3ccccc32)c1=O (configuration not stated)

AC50 [5]: 31.6 µM (inconclusive) | AC50 [2]: 31.6 µM (inconclusive)
Structure (SMILES): COC(=O)[C@@]1(Cc2ccc(OC)cc2)[C@H]2c3cc(C(=O)N4CCCC4)n(CCN4CCOCC4)c3C[C@H]2CN1C(=O)c1ccccc1

AC50 [1]: 28.2 µM (inconclusive)
Structure (SMILES): COC(=O)C(NC(=O)c1ccc(Cl)cc1)(Nc1nc(C)cs1)C(F)(F)F (configuration not stated)

AC50 [1]: 8.91 µM (inconclusive) | AC50 [5]: 0.398 µM (inconclusive)
Structure (SMILES): COC(=O)CSC(C(=O)Nc1ccc(C)c(C)c1)c1ccccc1 (configuration not stated)

AC50 [1]: 1.26 µM (inconclusive) | AC50 [2]: 10 µM (inconclusive) | AC50 [7]: 12.6 µM (inconclusive)
Structure (SMILES): Cn1c(=O)c(CCc2ccccc2)nc2cnc(Nc3ccccc3)nc21

EC50 [4]: > 260 µM (inactive)
Structure (SMILES): CCOC(=O)/C(=N/Nc1ccc(Cl)cc1)Sc1nnnn1-c1ccc(C)cc1

AC50 [1]: 25.1 µM (inconclusive) | AC50 [5]: 5.01 µM (inconclusive) | AC50 [2]: 1.12 µM (inconclusive)
Structure (SMILES): Cc1nn(-c2ccccc2)c(-c2ccccc2)c1C(=O)O

EC50 [4]: > 260 µM (inactive)
Structure (SMILES): COc1ccc(NS(=O)(=O)c2cccc(C(=O)N(C)Cc3ccc(SC)cc3)c2)cc1

EC50 [4]: > 260 µM (inactive)
Structure (SMILES): C/C=C1\COC(C(=O)NCc2ccccc2)(C(F)(F)F)C=C1C=C(C)C (configuration not stated)

AC50 [3]: 11.7 µM (active)
Structure (SMILES): C[C@H](CO)N1C[C@H](C)[C@H](CN(C)Cc2ccc(Cl)c(Cl)c2)OCCCC[C@H](C)Oc2ccc(NC(=O)NC3CCCCC3)cc2C1=O
